Here are results for 4 compounds from the supplement of paper PMC7394473.

Common to all, as to settings: 72 h
Experiment [1] deals with U2OS. The experiment is described as follows: GR50 (concentration giving GR = 0.5). Here is the method: (§1)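 U2OS cells treated with full dose titrations of drug; live and dead cells counted by STACK microscopy (mKate2 nuclei, SYTOX Green) at 72 h, biological triplicates. GR and FV dose responses were fitted with 4-parameter logistic models (GR lower bound -1). GRADE (0-100) is the rescaled angle of a linear fit of FV versus GR at doses with GR >= 0, giving the percentage of the response due to cell death.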

The subject of experiment [2] is U2OS. The experiment is described as follows: fractional viability (live cells / total cells); higher = less cell death. How it is done: (§2)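 U2OS::Nuc-mKate2 cells seeded in 96-well plates and treated with eight- to ten-point half-log or log dilutions of drug in the presence of 50 nM SYTOX Green. Live (mKate2+) and dead (SYTOX+) cells were counted by IncuCyte STACK live-cell microscopy at 72 h; biological triplicates. GR is the normalised growth-rate inhibition value (Hafner 2016; 1 = untreated growth, <0 = population shrinking). FV is live/(live+dead) cells, not normalised.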

Experiment [3] has as its system U2OS. The experiment is described as follows: FV IC50 (concentration giving fractional viability 0.5); higher = less potent killing. How it is done: as §1
The test system of experiment [4] is U2OS. Put plainly: drug GRADE (percent of response due to cell death) (% (0-100)); higher = more death-driven response. Here is the method: as §1
For experiment [5], the system named is U2OS. The experiment is described as follows: GRmin (fitted minimal GR value at highest effect) (GR value (dimensionless)); higher = less efficacious. How it is done: as §1
Experiment [6] deals with U2OS. Put plainly: normalized growth rate inhibition value (GR) relative to untreated cells (GR value (dimensionless, 1 = untreated growth)); higher = less growth inhibition. Here is the method: as §2

On to `Nc1ccccc1NC(=O)c1ccc(CNC(=O)OCc2cccnc2)cc1` [Entinostat], for which, in experiment [1], the GR50 came out at 2.84 µM. Also, the fractional viability in experiment [2] (0.01 µM) worked out at 0.979; in experiment [2] (0.0316 µM), 0.97; in experiment [2] (0.1 µM), 0.973; in experiment [2] (0.316 µM), 0.964; in experiment [2] (1 µM), 0.933; in experiment [2] (3.16 µM), 0.814. The fractional viability in experiment [2] (10 µM) was 0.201; in experiment [2] (31.6 µM), 0.0216. Besides, the “FV IC50” value in experiment [3] came out at 5.8 µM. Also, the “drug GRADE” value in experiment [4] came out at 42.5. The same compound had a GRmin in experiment [5] of -0.906. Moreover, the “normalized growth rate inhibition value” was 0.972 in experiment [6] (0.01 µM); 0.969 in experiment [6] (0.0316 µM); 0.929 in experiment [6] (0.1 µM); 0.883 in experiment [6] (0.316 µM); 0.741 in experiment [6] (1 µM); 0.504 in experiment [6] (3.16 µM). Also, the entries for the “normalized growth rate inhibition value” in experiment [6] (10 µM) and in experiment [6] (31.6 µM) were -0.304 and -0.726, respectively.

In experiment [1], `CC(C)Oc1ccc(-c2ccccc2)cc1-n1c(CN2CCN(C(=O)COc3ccc(Cl)cc3)CC2)nc2ccccc2c1=O` [Erastin 2] yielded a GR50 of 0.231 µM. Further, the fractional viability in experiment [2] (0.01 µM) amounted to 0.97; in experiment [2] (0.0316 µM), 0.973; in experiment [2] (0.1 µM), 0.952; in experiment [2] (0.316 µM), 0.886; in experiment [2] (1 µM) it was 0.233; in experiment [2] (3.16 µM) it was 0.0768. Moreover, the fractional viability was found to be 0.0609 in experiment [2] (10 µM) and 0.0186 in experiment [2] (31.6 µM). Also, the “FV IC50” value in experiment [3] stood at 0.659 µM. The “drug GRADE” value in experiment [4] was determined as 24.1. For the same compound, the GRmin in experiment [5] was -0.774. Also, the “normalized growth rate inhibition value” is 0.949 in experiment [6] (0.01 µM); 0.863 in experiment [6] (0.0316 µM); 0.703 in experiment [6] (0.1 µM); 0.419 in experiment [6] (0.316 µM); -0.133 in experiment [6] (1 µM); -0.515 in experiment [6] (3.16 µM). In addition, the “normalized growth rate inhibition value” in experiment [6] (10 µM) was -0.627; in experiment [6] (31.6 µM), -0.776.

In turn, `COC(=O)Nc1nc2cc(C(=O)c3ccc(F)cc3)ccc2[nH]1` [Flubendazole] had a GR50 in experiment [1] of 0.566 µM. Also, the fractional viability stood at 0.981 in experiment [2] (0.01 µM); 0.978 in experiment [2] (0.0316 µM); 0.971 in experiment [2] (0.1 µM); 0.95 in experiment [2] (0.316 µM); 0.766 in experiment [2] (1 µM); 0.595 in experiment [2] (3.16 µM). Further, the fractional viability in experiment [2] (10 µM) was 0.516; in experiment [2] (31.6 µM), 0.468. For the same compound, the “FV IC50” value in experiment [3] amounted to 10.7 µM. Further, the “drug GRADE” value in experiment [4] came out at 61.2. This compound showed a GRmin in experiment [5] of -0.0291. Also, the “normalized growth rate inhibition value” in experiment [6] (0.01 µM) turned out to be 0.993; in experiment [6] (0.0316 µM) it was 1; in experiment [6] (0.1 µM) it was 0.892; in experiment [6] (0.316 µM), 0.706; in experiment [6] (1 µM) it was 0.286; in experiment [6] (3.16 µM), 0.11. The “normalized growth rate inhibition value” was -0.01 in experiment [6] (10 µM) and -0.0371 in experiment [6] (31.6 µM).

Take `COc1cc2c(Oc3ccc(NC(=O)C4(C(=O)Nc5ccc(F)cc5)CC4)cc3F)ccnc2cc1OCCCN1CCOCC1` [Foretinib]: the GR50 in experiment [1] is 0.138 µM. Also, the fractional viability in experiment [2] (0.01 µM) was 0.966; in experiment [2] (0.0316 µM), 0.963; in experiment [2] (0.1 µM), 0.941; in experiment [2] (0.316 µM) it was 0.689; in experiment [2] (1 µM), 0.553; in experiment [2] (3.16 µM), 0.0154. The fractional viability in experiment [2] (10 µM) is 0; in experiment [2] (31.6 µM) it was 0.0267. Further, the “FV IC50” value in experiment [3] was found to be 0.864 µM. Moreover, the “drug GRADE” value in experiment [4] turned out to be 39.7. Further, in experiment [5], the GRmin was -0.837. The “normalized growth rate inhibition value” in experiment [6] (0.01 µM) was 0.909; in experiment [6] (0.0316 µM), 0.791; in experiment [6] (0.1 µM) it was 0.766; in experiment [6] (0.316 µM), -0.079; in experiment [6] (1 µM), -0.199; in experiment [6] (3.16 µM) it was -0.831. Besides, the figures for the “normalized growth rate inhibition value” in experiment [6] (10 µM) and in experiment [6] (31.6 µM) were -0.93 and -0.682, respectively.
